From PubChem BioAssay AID1259411 (Chemical Carcinogenesis Research Information System (CCRIS), 2018) come the findings set out here.

The test system of the data set is rodent carcinogenicity bioassays, tumor incidence. Briefly: CCRIS carcinogenicity studies. The gist of the method:
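Archive of carcinogenicity, mutagenicity, tumor promotion and tumor inhibition results drawn from journals, NCI reports and other sources, expert-reviewed; covers 1985-2011 and is no longer updated.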

Active and inactive are the calls of the source. No rule for the calls is given here.

In the case of `CN(C)c1ccc(C(=C2C=CC(=[N+](C)C)C=C2)c2ccc(N(C)C)cc2)cc1`, the carcinogen call reads like this: (Species: MOUSE, Strain/Sex: B6C3F1/FEMALE, Route: ORAL, Dose: 0, 100, 300, 600 PPM IN DIET FOR 104 WK (STUDY DURATION: 2 YR), Dose: 0, 100, 300, 600 PPM IN DIET FOR 104 WK (STUDY DURATION: 2 YR), Tumor Site: Type of Lesion: LIVER: MALIGNANT NEOPLASM, HARDERIAN GLAND: ADENOMA, UTERUS: TYPE-A RETICULUM CELL SARCOMA, OVARIES: TYPE-A RETICULUM CE, Tumor Site: Type of Lesion: LIVER: MALIGNANT NEOPLASM, HARDERIAN GLAND: ADENOMA, UTERUS: TYPE-A RETICULUM CELL SARCOMA, OVARIES: TYPE-A RETICULUM CE) “active; positive”; (Species: MOUSE, Strain/Sex: B6C3F1/MALE, Route: ORAL, Dose: 0, 100, 300, 600 PPM IN DIET FOR 104 WK (STUDY DURATION: 2 YR), Dose: 0, 100, 300, 600 PPM IN DIET FOR 104 WK (STUDY DURATION: 2 YR), Tumor Site: Type of Lesion: LIVER: MALIGNANT NEOPLASM, HARDERIAN GLAND: ADENOMA) “active; positive”; (Species: RAT, Strain/Sex: F344/FEMALE, Route: ORAL, Dose: 0, 100, 300, 600 PPM IN FEED FOR 24 MO (STUDY DURATION: 24 MO), Dose: 0, 100, 300, 600 PPM IN FEED FOR 24 MO (STUDY DURATION: 24 MO), Tumor Site: Type of Lesion: LIVER: HEPATOCELLULAR ADENOMA, THYROID GLAND: FOLLICULAR CELL ADENOCARCINOMA) “active; positive”; (Species: RAT, Strain/Sex: F344/MALE, Route: ORAL, Dose: 0, 100, 300, 600 PPM IN FEED FOR 24 MO (STUDY DURATION: 24 MO), Dose: 0, 100, 300, 600 PPM IN FEED FOR 24 MO (STUDY DURATION: 24 MO), Tumor Site: Type of Lesion: LIVER: HEPATOCELLULAR ADENOMA, THYROID GLAND: FOLLICULAR CELL ADENOCARCINOMA) “active; positive”.
Consider `CCCCOC(=O)c1ccccc1C(=O)OCc1ccccc1`, for which the carcinogen call (Species: MOUSE, Strain/Sex: B6C3F1/FEMALE, Route: ORAL, Dose: 0, 6000, 12000 PPM IN DIET FOR 103 WK (STUDY DURATION: 105-106 WK), Dose: 0, 6000, 12000 PPM IN DIET FOR 103 WK (STUDY DURATION: 105-106 WK)) was “inactive; negative”; the carcinogen call (Species: MOUSE, Strain/Sex: B6C3F1/MALE, Route: ORAL, Dose: 0, 6000, 12000 PPM IN DIET FOR 103 WK (STUDY DURATION: 104-106 WK), Dose: 0, 6000, 12000 PPM IN DIET FOR 103 WK (STUDY DURATION: 104-106 WK)) was “inactive; negative”; the carcinogen call (Species: RAT, Strain/Sex: F344/FEMALE, Route: ORAL, Dose: 0, 6000, 12000, 24000 PPM IN DIET FOR DURATION OF STUDY (STUDY DURATION: 104 WK), Dose: 0, 6000, 12000, 24000 PPM IN DIET FOR DURATION OF STUDY (STUDY DURATION: 104 WK), Tumor Site: Type of Lesion: PANCREAS: ACINAR CELL ADENOMA, URINARY BLADDER: TRANSITIONAL EPITHELIAL PAPILLOMA) is “equivocal”; the carcinogen call (Species: RAT, Strain/Sex: F344/FEMALE, Route: ORAL, Dose: 0, 24000 PPM IN DIET FOR 105 WK, CONTROL GROUP DIET RESTRICTED TO LIMIT WEIGHTS TO 85% OF AD LIBITUM-FED GROUP (STUDY DU) was “inactive; negative”; the carcinogen call (Species: RAT, Strain/Sex: F344/FEMALE, Route: ORAL, Dose: 0, 24000 PPM IN DIET FOR 106 WK, CONTROL AND DOSED GROUP FED AD LIBITUM (STUDY DURATION: 2 YR)) is “inactive; negative”; the carcinogen call (Species: RAT, Strain/Sex: F344/FEMALE, Route: ORAL, Dose: 0, 24000 PPM IN DIET FOR 106 WK, CONTROL GROUP WAS WEIGHT-MATCHED TO DOSED GROUP (STUDY DURATION: 2 YR)) is “inactive; negative”. The carcinogen call (Species: RAT, Strain/Sex: F344/MALE, Route: ORAL, Dose: 0, 3000, 6000, 12000 PPM IN DIET FOR DURATION OF STUDY (STUDY DURATION: 104 WK), Dose: 0, 3000, 6000, 12000 PPM IN DIET FOR DURATION OF STUDY (STUDY DURATION: 104 WK), Tumor Site: Type of Lesion: PANCREAS: ACINAR CELL ADENOMA, ACINAR CELL ADENOMA OR CARCINOMA) was “active; positive”; the carcinogen call (Species: RAT, Strain/Sex: F344/MALE, Route: ORAL, Dose: 0, 12000 PPM IN DIET FOR 105 WK, CONTROL AND DOSED GROUPS FED AD LIBITUM (STUDY DURATION 2 YR), Tumor Site: Type of Lesion: PANCREAS(ACINUS): ADENOMA) was “active; positive”; the carcinogen call (Species: RAT, Strain/Sex: F344/MALE, Route: ORAL, Dose: 0, 12000 PPM IN DIET FOR 105 WK, CONTROL GROUP DIET RESTRICTED TO LIMIT WEIGHTS TO 85% OF AD LIBITUM-FED GROUPS (STUDY D) is “inactive; negative”; the carcinogen call (Species: RAT, Strain/Sex: F344/MALE, Route: ORAL, Dose: 0, 12000 PPM IN DIET FOR 105 WK, CONTROL GROUP WAS WEIGHT-MATCHED TO DOSED GROUP (STUDY DURATION: 2 YR), Tumor Site: Type of Lesion: PANCREAS(ACINUS): ADENOMA) was “active; positive”; the carcinogen call (Species: RAT, Strain/Sex: F344/MALE, Route: ORAL, Dose: 0, 12000 PPM IN DIET FOR 128 WK, CONTROL GROUP DIET RESTRICTED TO LIMIT WEIGHTS TO 85% OF AD LIBITUM-FED GROUP (STUDY DU) is “inactive; negative”.
`CC(C)NCC(O)c1ccc2ccccc2c1` (stereo not given): where the note is “Species: MOUSE, Route: ORAL, Tumor Site: Type of Lesion: THYROID GLAND”, the carcinogen call was “active; positive”.
On to `O=P1(NCCCl)OCCCN1CCCl` (stereo not given), for which the carcinogen call is “active; positive” (Species: MOUSE, Strain/Sex: B6C3F1/FEMALE, Route: INTRAPERITONEAL, Dose: 0, 10, 20 MG/KG IN BUFFERED SALINE 3/WK FOR 52 WK (STUDY DURATION: 79-80 WK), Dose: 0, 10, 20 MG/KG IN BUFFERED SALINE 3/WK FOR 52 WK (STUDY DURATION: 79-80 WK), Tumor Site: Type of Lesion: LYMPHATIC SYSTEM: MALIGNANT LYMPHOMA); “inactive; negative” (Species: MOUSE, Strain/Sex: B6C3F1/MALE, Route: INTRAPERITONEAL, Dose: 0, 10, 20 MG/KG IN BUFFERED SALINE 3/WK FOR 52 WK (STUDY DURATION: 79-80 WK), Dose: 0, 10, 20 MG/KG IN BUFFERED SALINE 3/WK FOR 52 WK (STUDY DURATION: 79-80 WK)); “active; positive” (Species: MOUSE, Strain/Sex: STRAIN-A/MALE,FEMALE, Route: INTRAPERITONEAL, Dose: 0, 18.8, 47 MG/KG IN WATER 3/WK FOR 8 WK, Dose: 0, 18.8, 47 MG/KG IN WATER 3/WK FOR 8 WK, Tumor Site: Type of Lesion: LUNG); “active; positive” (Species: RAT, Strain/Sex: SPRAGUE-DAWLEY/FEMALE, Route: INTRAPERITONEAL, Dose: 0, 6, 12 MG/KG IN BUFFERED SALINE 3/WK FOR 52 WK (STUDY DURATION: 79-83 WK), Dose: 0, 6, 12 MG/KG IN BUFFERED SALINE 3/WK FOR 52 WK (STUDY DURATION: 79-83 WK), Tumor Site: Type of Lesion: MAMMARY GLAND: CYSTADENOMA OR CYSTADENOCARCINOMA, UTERUS: LEIOMYOSARCOMA;ADRENAL GLAND: CORTICAL ADENOMA, Tumor Site: Type of Lesion: MAMMARY GLAND: CYSTADENOMA OR CYSTADENOCARCINOMA, UTERUS: LEIOMYOSARCOMA;ADRENAL GLAND: CORTICAL ADENOMA); “inactive; negative” (Species: RAT, Strain/Sex: SPRAGUE-DAWLEY/MALE, Route: INTRAPERITONEAL, Dose: 0, 6, 12 MG/KG IN BUFFERED SALINE 3/WK FOR 52 WK (STUDY DURATION: 79-83 WK), Dose: 0, 6, 12 MG/KG IN BUFFERED SALINE 3/WK FOR 52 WK (STUDY DURATION: 79-83 WK)).
On to `O=P(O)(O)CCCl`, for which the carcinogen call (Species: Mouse, Strain/Sex: CD-1 albino/Female (20 or 50/Group), Route: Oral, Dose: 0, 100, 1000, 10,000 ppm of 70.6-72.1% ethephon for 52 (20/Group) wks and 78 (50/Group) wks, Dose: 0, 100, 1000, 10,000 ppm of 70.6-72.1% ethephon for 52 (20/Group) wks and 78 (50/Group) wks) was “inactive; negative”; the carcinogen call (Species: Mouse, Strain/Sex: CD-1 albino/Male (20 or 50/Group), Route: Oral, Dose: 0, 100, 1000, 10,000 ppm of 70.6-72.1% ethephon for 52 (20/Group) wks and 78 (50/Group) wks, Dose: 0, 100, 1000, 10,000 ppm of 70.6-72.1% ethephon for 52 (20/Group) wks and 78 (50/Group) wks) is “inactive; negative”; the carcinogen call (Species: Rat, Strain/Sex: Sprague-Dawley CD/Female (30 or 50/Group), Route: Oral, Dose: 0, 300, 3000, 10,000, 30,000 ppm of 70.6-72.1% ethephon for 104 wks, study duration 104 wks, Dose: 0, 300, 3000, 10,000, 30,000 ppm of 70.6-72.1% ethephon for 104 wks, study duration 104 wks) is “inactive; negative”; the carcinogen call (Species: Rat, Strain/Sex: Sprague-Dawley CD/Male (30 or 50/Group), Route: Oral, Dose: 0, 300, 3000, 10,000, 30,000 ppm of 70.6-72.1% ethephon for 97 wks, study duration 97 wks, Dose: 0, 300, 3000, 10,000, 30,000 ppm of 70.6-72.1% ethephon for 97 wks, study duration 97 wks) is “inactive; negative”.
